Where two headings read alike, the source gives them in different places.
Columns and labels:
[1] = 4b, 50 mg/kg dosed orally, ref (4); cited from earlier work
[2] = molecular target: T1, HDAC8 (Homo sapiens (Human), UniProt Q9BY41); conditions: Table 1, literature data; read-out: Inhibitory Potency (IC50) HDAC 8; cited from earlier work
[3] = molecular target: HDAC9 (Homo sapiens (Human), UniProt Q9UKV0); conditions: Table 1, literature data; read-out: Inhibitory Potency (IC50) HDAC 9; cited from earlier work
[4] = molecular target: HDAC7 (Homo sapiens (Human), UniProt Q8WUI4); conditions: Table 1, literature data; read-out: Inhibitory Potency (IC50) HDAC 7; cited from earlier work
[5] = molecular target: HDAC5 (Homo sapiens (Human), UniProt Q9UQL6); conditions: Table 1, literature data; read-out: Inhibitory Potency (IC50) HDAC 5; cited from earlier work
[6] = molecular target: HDAC10 (Homo sapiens (Human), UniProt Q969S8); conditions: Table 1, literature data; read-out: Inhibitory Potency (IC50) HDAC 10; cited from earlier work
[7] = molecular target: HDAC4 (Homo sapiens (Human), UniProt P56524); conditions: Table 1, literature data; read-out: Inhibitory Potency (IC50) HDAC 4; cited from earlier work
[8] = test system: HCT116 cells; assay: H3K18ac after 6 h pulse treatment and drug washout; format: cell-based; conditions: for time at which histone acetylation (H3K18ac) was induced: HCT116, 6 h pulse exposure; for time up to which induced acetylation was maintained: HCT116, 6 h pulse then drug washout, time after drug addition
[9] = in vivo; conditions: rat
[10] = rat, ref (6); cited from earlier work
[11] = test system: HCT116 cells; assay: Histone acetylation by Western blotting; format: cell-based; conditions: for accumulation of acetylated histones: HCT116, 1 h exposure, TSA 0.2 μM, others 2 μM (FIG. 1A)
[12] = molecular target: T2, HDAC3 (Homo sapiens (Human), UniProt O15379); assay: HDAC3 in vitro inhibition, dose response; format: biochemical; conditions: Table 2; read-out: HDAC 3 IC50
[13] = molecular target: T3, HDAC2 (Homo sapiens (Human), UniProt Q92769); assay: HDAC2 in vitro inhibition, dose response; format: biochemical; conditions: Table 2; read-out: HDAC 2 IC50
[14] = molecular target: T4, HDAC1 (Homo sapiens (Human), UniProt Q13547); assay: HDAC1 in vitro inhibition, dose response; format: biochemical; conditions: Table 2; read-out: HDAC 1 IC50
[15] = test system: HepG2 cells
[16] = test system: HepG2 cells; assay: cells; conditions: Homo sapiens
[17] = molecular target: HDAC6 (Homo sapiens (Human), UniProt Q9UBN7); assay: HDAC6 in vitro inhibition, dose response; format: biochemical; conditions: Table 2; read-out: HDAC 6 IC50
[18] = molecular target: T1, HDAC8; assay: HDAC8 in vitro inhibition, dose response; format: biochemical; conditions: Table 2; read-out: HDAC 8 IC50
[19] = test system: Ad-MLP-Luc reporter in HCT116 cell line; assay: Ad-MLP-Luc luciferase reporter activation; format: cell-based; conditions: HCT116, dose-dependent
[20] = molecular target: T4, HDAC1; conditions: Table 1, literature data; read-out: Inhibitory Potency (IC50) HDAC 1; cited from earlier work
[21] = molecular target: T4, HDAC1; assay: In vitro HDAC1 inhibition of HTS hits (HDAC I/II-Glo reagents); format: biochemical; conditions: HTS follow-up
[22] = molecular target: T2, HDAC3; assay: HDAC-3 inhibition potency, luminescence readout; format: biochemical; conditions: Table 6, luminescence readout
[23] = test system: MDA-MB-231 cells; assay: Cancer cell viability (CellTiter-Glo); format: cell-based; conditions: for IC50: Homo sapiens, MDA-MB-231, read-out: Cancer cell (MDA-MB-231) killing IC50
[24] = molecular target: T3, HDAC2; assay: HDAC-2 inhibition potency, luminescence readout; format: biochemical; conditions: Table 6, luminescence readout
Source text: (§1) Compounds were examined for their HDAC inhibitory activity and their effect on cancer cell viability (MDA-MB-231 cells).

[25] = molecular target: T4, HDAC1; assay: HDAC-1 inhibition potency, luminescence readout; format: biochemical; conditions: Table 6, luminescence readout
Source text: as §1

[26] = test system: HCT116 and A549 cells; assay: Acetylation of non-histone proteins by Western blotting; format: cell-based; conditions: HCT116 and A549, 1 h; TSA 0.2 μM, UF010 2 μM

T1 sequence (Q9BY41 whole entry): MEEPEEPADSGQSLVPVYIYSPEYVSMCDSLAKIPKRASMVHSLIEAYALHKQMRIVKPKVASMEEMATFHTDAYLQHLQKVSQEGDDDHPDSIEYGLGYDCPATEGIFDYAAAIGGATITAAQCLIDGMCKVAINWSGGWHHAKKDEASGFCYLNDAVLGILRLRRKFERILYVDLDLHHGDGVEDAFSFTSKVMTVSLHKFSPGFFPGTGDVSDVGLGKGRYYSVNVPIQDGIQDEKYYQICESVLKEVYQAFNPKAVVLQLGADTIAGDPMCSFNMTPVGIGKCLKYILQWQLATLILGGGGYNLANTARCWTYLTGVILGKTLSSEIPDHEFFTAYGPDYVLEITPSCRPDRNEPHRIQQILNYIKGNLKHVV
T4 sequence (Q13547 whole entry): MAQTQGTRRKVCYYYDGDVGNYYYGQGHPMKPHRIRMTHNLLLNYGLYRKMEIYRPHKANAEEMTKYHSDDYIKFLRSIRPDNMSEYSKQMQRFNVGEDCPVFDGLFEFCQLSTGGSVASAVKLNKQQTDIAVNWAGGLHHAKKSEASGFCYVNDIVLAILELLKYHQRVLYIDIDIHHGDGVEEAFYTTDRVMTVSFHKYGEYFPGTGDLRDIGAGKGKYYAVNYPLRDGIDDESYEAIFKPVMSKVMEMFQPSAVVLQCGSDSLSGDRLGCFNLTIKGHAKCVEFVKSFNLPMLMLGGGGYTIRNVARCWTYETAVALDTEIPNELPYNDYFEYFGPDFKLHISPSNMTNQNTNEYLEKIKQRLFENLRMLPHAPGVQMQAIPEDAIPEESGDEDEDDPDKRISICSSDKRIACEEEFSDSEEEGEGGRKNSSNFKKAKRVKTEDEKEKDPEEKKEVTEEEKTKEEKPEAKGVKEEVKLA
T3 sequence (Q92769 whole entry): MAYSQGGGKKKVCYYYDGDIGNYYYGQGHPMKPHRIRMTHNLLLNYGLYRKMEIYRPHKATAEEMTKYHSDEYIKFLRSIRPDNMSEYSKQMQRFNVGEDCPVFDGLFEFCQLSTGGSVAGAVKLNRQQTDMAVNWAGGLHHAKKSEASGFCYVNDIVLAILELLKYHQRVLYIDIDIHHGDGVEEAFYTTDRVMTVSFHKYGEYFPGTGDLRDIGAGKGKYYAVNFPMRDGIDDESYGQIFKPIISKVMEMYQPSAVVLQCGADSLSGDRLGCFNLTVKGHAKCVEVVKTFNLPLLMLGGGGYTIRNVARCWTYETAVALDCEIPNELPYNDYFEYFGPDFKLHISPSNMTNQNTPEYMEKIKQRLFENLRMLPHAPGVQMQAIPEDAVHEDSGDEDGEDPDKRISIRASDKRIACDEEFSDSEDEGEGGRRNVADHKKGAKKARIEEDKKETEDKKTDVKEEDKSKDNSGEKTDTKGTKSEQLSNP
T2 sequence (O15379 whole entry): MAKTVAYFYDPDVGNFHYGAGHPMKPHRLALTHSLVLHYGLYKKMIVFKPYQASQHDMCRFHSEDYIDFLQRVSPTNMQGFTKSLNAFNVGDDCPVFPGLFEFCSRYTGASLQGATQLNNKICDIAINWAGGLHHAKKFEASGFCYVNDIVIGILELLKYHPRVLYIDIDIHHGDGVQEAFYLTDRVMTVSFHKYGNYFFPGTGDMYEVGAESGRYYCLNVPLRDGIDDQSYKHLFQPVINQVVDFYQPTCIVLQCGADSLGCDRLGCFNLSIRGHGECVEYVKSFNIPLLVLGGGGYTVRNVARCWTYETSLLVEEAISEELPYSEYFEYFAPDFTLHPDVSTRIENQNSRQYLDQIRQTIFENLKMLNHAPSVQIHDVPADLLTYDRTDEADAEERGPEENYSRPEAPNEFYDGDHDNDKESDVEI
T2 sequence (Q9Y618 395-489 partner): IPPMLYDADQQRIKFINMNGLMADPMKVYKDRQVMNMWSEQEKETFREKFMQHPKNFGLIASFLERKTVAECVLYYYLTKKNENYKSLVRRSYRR
HDAC4, sequence (P56524 whole entry): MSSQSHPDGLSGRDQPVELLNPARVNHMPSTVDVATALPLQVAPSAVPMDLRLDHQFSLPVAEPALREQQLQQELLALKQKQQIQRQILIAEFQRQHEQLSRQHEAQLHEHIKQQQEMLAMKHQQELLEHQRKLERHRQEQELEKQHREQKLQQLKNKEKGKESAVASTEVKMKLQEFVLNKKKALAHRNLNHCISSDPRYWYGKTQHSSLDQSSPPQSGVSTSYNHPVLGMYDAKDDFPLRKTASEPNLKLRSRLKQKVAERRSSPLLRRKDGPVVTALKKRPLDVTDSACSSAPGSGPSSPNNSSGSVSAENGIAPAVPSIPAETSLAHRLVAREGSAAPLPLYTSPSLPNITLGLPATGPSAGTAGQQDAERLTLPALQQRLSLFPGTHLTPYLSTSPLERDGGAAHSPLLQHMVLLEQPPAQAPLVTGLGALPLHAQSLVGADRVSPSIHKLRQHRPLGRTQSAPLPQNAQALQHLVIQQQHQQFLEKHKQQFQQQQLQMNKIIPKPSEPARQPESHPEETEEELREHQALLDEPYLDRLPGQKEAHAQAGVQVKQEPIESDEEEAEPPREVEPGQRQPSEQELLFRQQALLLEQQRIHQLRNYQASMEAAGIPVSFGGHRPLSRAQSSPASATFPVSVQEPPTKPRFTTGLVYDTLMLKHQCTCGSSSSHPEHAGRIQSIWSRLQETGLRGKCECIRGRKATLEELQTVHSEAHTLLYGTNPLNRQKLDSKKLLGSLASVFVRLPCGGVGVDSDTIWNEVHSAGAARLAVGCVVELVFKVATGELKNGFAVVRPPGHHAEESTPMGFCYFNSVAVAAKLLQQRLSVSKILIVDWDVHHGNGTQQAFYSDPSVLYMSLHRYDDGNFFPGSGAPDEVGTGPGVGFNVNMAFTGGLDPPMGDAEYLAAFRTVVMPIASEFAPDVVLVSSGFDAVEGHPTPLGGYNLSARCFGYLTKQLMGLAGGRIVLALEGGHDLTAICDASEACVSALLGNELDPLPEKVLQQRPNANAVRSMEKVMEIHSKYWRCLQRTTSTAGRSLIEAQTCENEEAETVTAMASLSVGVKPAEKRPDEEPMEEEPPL
HDAC6, sequence (Q9UBN7 whole entry): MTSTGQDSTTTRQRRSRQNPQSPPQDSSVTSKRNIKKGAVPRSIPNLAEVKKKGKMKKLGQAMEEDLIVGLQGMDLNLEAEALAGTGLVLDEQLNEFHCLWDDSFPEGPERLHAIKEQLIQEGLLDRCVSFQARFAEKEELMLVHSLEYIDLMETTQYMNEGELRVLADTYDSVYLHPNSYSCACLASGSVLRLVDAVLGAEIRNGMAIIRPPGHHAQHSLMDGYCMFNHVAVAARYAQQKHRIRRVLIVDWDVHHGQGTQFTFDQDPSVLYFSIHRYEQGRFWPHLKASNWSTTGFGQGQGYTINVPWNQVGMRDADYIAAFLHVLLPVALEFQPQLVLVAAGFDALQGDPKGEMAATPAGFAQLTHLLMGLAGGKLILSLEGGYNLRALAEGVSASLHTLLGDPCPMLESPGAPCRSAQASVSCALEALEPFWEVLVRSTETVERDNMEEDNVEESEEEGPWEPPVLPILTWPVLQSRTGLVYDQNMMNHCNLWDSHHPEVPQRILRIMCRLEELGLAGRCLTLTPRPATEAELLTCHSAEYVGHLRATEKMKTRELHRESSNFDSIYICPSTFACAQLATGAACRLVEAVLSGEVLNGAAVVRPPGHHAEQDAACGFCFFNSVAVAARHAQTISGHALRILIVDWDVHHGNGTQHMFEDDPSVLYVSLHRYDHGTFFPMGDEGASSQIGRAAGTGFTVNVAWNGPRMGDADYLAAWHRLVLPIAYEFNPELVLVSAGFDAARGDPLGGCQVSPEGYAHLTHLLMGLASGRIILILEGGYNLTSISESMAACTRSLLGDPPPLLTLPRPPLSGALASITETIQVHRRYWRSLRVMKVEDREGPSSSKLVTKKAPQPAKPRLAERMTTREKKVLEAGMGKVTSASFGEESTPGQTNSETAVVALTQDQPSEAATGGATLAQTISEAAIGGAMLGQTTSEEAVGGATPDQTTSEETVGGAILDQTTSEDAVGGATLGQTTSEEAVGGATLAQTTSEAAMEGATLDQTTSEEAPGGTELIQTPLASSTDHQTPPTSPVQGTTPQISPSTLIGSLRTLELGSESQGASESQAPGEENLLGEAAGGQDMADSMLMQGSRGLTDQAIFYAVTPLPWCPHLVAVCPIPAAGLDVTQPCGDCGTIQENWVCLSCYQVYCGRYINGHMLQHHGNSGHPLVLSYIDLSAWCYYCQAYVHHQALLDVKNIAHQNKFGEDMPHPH
HDAC10, sequence (Q969S8 whole entry): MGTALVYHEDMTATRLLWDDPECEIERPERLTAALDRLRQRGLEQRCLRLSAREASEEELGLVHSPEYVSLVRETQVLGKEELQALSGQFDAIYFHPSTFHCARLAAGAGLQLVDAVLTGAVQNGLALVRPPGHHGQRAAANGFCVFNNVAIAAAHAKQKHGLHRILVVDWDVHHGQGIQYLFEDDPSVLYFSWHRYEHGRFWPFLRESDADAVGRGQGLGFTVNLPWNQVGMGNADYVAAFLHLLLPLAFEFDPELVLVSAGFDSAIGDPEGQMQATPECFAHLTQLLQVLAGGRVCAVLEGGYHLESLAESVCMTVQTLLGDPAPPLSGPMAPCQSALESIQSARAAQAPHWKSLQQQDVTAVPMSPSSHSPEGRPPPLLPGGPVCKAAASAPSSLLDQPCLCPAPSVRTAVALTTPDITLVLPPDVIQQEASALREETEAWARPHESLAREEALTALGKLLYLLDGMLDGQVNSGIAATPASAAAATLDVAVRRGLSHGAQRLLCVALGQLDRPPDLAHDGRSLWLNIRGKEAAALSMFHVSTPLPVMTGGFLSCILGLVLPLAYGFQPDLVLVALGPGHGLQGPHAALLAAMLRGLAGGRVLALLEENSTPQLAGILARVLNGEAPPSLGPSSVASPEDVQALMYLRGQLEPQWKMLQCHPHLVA

## Nc1ccccc1NC(=O)CCCCCC(=O)Nc1ccccc1 [Compound 4b]
[1]
  AUC: 1.08 µM·h
  Cmax: 1130 nM
  T1/2: 2.76 h
  Tmax: 0.25 h

## CC(=O)Nc1ccc(C(=O)Nc2cc(-c3cccs3)ccc2N)cc1 [Cpd60]
[2]
  IC50: > 30 µM
[3]
  IC50: > 30 µM
[4]
  IC50: > 30 µM
[5]
  IC50: > 30 µM
[6]
  IC50: 3.4 µM
[7]
  IC50: > 30 µM

## Nc1ccccc1NC(=O)c1ccc(CNC(=O)OCc2cccnc2)cc1 [MS-275, entinostat]
[8]
  time at which histone acetylation (H3K18ac) was induced: 18 h
  time up to which induced acetylation was maintained: at least 48 h
[9]
  MTD: ~1.5 mg/kg
[10]
  MTD: 3.1 mg/kg
[11]
  accumulation of acetylated histones: only slightly induced acetylation at several sites but failed to induce acetylation at most sites

## CCCCNNC(=O)c1ccccc1 [RLS2-125, N′-butylbenzohydrazide]
[12]
  IC50: > 50 µM
[13]
  IC50: > 50 µM
[14]
  IC50: > 50 µM
[15]; HepG2, 96 h
  growth inhibition for HepG2: little to no growth inhibition

## CCCCNNC(=O)c1ccc(N(C)C)cc1 [RLS2-131, N′-butyl-4-(dimethylamino)benzohydrazide]
[16]; HepG2, read-out: IC50 Control
  IC50: 1.5 µM
[16]; HepG2, read-out: IC50 HDAC1 shRNA
  IC50: 1.8 µM
[16]; HepG2, read-out: IC50 HDAC2 shRNA
  IC50: 2 µM
[16]; HepG2, read-out: IC50 HDAC3 shRNA
  IC50: 0.2 µM
[12]
  IC50: 0.12 µM
[13]
  IC50: 0.88 µM
[17]
  IC50: > 50 µM
[18]
  IC50: 13.1 µM
[14]
  IC50: 0.23 µM
[15]; HepG2
  potency against HepG2 relative to UF010: 3 fold
[11]; HCT116, 0.5 μM, 24 h (FIG. 1B)
  inhibition of cellular HDACs (H4K5ac, H3K18ac): potent inhibition of cellular HDACs

## C/C=C1\NC(=O)[C@H]2CSSCC/C=C/[C@H](CC(=O)N[C@H](C(C)C)C(=O)N2)OC(=O)[C@H](C(C)C)NC1=O [Romidepsin, romidepsin]
[8]
  time at which histone acetylation (H3K18ac) was induced: quickly induced acetylation
  time up to which induced acetylation was maintained: up to 24 h
[19]
  Ad-MLP-Luc reporter activity: dramatically increased
[7]
  IC50: 0.03 µM
[20]
  IC50: 0.002 µM

## O=C(CCCCCCC(=O)Nc1ccccc1)NO [SAHA, vorinostat, reference compound]
[21]
  potency of HDAC1 inhibition in vitro: < 10 µM

## CCCCNNC(=O)c1ccccc1-c1ccccc1 [SR-3459]
[22]
  HDAC inhibition potency (IC50) HDAC3: No inhibition
[23]
  IC50: > 100 µM
[23]; MDA-MB-231
  effect on cancer cell viability: does not impair cancer cell viability
[24]
  HDAC inhibition potency (IC50) HDAC2: No inhibition
[25]
  HDAC inhibition potency (IC50) HDAC1: No inhibition

## CCCCNNC(=O)c1ccc(-c2ccccc2)cc1 [SR-3558]
[23]
  IC50: 12.3 µM
[24]
  IC50: 0.8 µM
[25]
  IC50: 0.09 µM

## CCCCNNC(=O)c1ccc(-c2cccc(F)c2F)cc1 [SR-4370, N′-butyl-2′,3′-difluorobiphenyl-4-carbohydrazide]
[22]
  IC50: 0.006 µM
[23]
  IC50: 12.6 µM
[24]
  IC50: 0.58 µM
[12]
  IC50: 0.006 µM
[13]
  IC50: 0.58 µM
[17]
  IC50: 3.7 µM
[25]
  IC50: 0.13 µM
[18]
  IC50: 2.3 µM
[14]
  IC50: 0.13 µM

## CC(/C=C/C(=O)NO)=C\[C@@H](C)C(=O)c1ccc(N(C)C)cc1 [TSA, Trichostatin A, reference compound]
[11]
  accumulation of acetylated histones: strongly induced acetylation at some sites but weakly at other sites
[26]
  α-tubulin acetylation: dramatically increased
